Test results published in patent publication US20250120916A1, “NANOTECHNOLOGY FOR CHEMOTHERA0PY DRUG CAPTURE” (The Regents of the University of California, priority 2021, published 2025).
Structures can show the parent of a compound that is named as a salt. Where two headings read alike, the source gives them in different places. Blank lines part the entries; values can stand above or below the compound they belong to.

What was measured:
[1] = system: fibroblast; conditions: literature (75); cited from earlier work
[2] = Biodetoxification test, HUVECs; conditions: human
Protocol: (§1) Biodetoxification tests: To determine the biodetoxification effect of ENCC, 5×10^3 NIH/3T3 cells or HUVECs were seeded in 96-well plates with 200 μL of DMEM supplemented with FBS (10% v/v) and 1% v/v of Pen-Strep or EGM bullet kit HUVEC media, respectively. The cells were allowed to attach to the bottom of wells for 1 h, the media were aspirated, and the cells were rinsed with 200 μL of DPBS, followed by the addition of 200 μL of corresponding media including DOX (final concentration=400 μg mL−1), which was previously detoxified by adding ENCC (final concentration=1 mg mL−1), centrifuged at 1000 rpm for 3 min, and separated from the precipitate. The control experiments were conducted in corresponding DOX-free cell culture media or DOX-containing media without ENCC treatment. Each group consisted of 5 wells. After 8 h, the media was aspirated, the cells were rinsed twice with 200 μL of DPBS, followed by the addition of 100 μL of PrestoBlue™ reagent to each well. The cells were incubated for 1 h, and then the PrestoBlue™ absorbance was recorded using the microplate reader. Immediately afterwards, the cells were again rinsed twice with 200 μL, of DPBS, followed by the addition of 150 μL, of the Live/Dead reagents. The cells were incubated for 90 min and imaged using the fluorescence microscope. The fluorescence images were analyzed using the Imagej Software.(62)

[3] = system: HUVECs; test: Biodetoxification test, HUVECs; conditions: untreated DOX 400 μg mL−1 media, 8 h
Protocol: as §1

[4] = Hydrodynamic size (DLS) and ζ-potential measurements; format: physicochemical
Protocol: Hydrodynamic size and ζ-potential measurements: A Zetasizer Nano ZS from Malvern Panalytical Ltd was used to conduct dynamic light scattering (DLS) and electrokinetic measurements in folded capillary cells (DTS1070). Samples were prepared with an ENCC concentration of 0.1 mg mL−1 in 1 mg mL−1 of NaCl solution A final DOX concentration of 0.03 mg mL−1 was used to have an ˜1:10 molar ratio of DOX to the carboxylate of ENCC For ζ-potential measurements on DOX, the concentration was lowered to 0.003 mg mL−1. At least three measurements were taken for each DLS experiment, with 11 runs per measurement. For the ζ-potential tests, the number of measurements was at least three, with up to 100 runs per measurement.

[5] = Biodetoxification test, NIH/3T3 fibroblasts; conditions: mouse, NIH/3T3 fibroblasts
Protocol: as §1

[6] = system: NIH/3T3 fibroblasts; test: Biodetoxification test, NIH/3T3 fibroblasts; conditions: NIH/3T3, untreated DOX 400 μg mL−1 media, 8 h
Protocol: as §1

[7] = system: red blood cells (RBCs) in human whole blood; test: Hemolysis assessment (ASTM E2524-08); format: cell-based
Protocol: Hemolysis assessment: The hemolytic activity of ENCC was measured via exposing human whole blood, withdrawn from 3 healthy volunteer donors by another lab, to varying concentrations of ENCC and measuring the concentration of released hemoglobin in plasma according to the American Society for Testing and Materials (ASTM) E2524-08 (2013) standard analysis of hemolytic activity of nanoparticles.(61) A colorimetric technique was used to measure the oxidation of […] (Drabkin's reagent) at an absorbance of 540 nm A calibration curve was obtained using […] of pure human hemoglobin to quantify the concentration of released hemoglobin in heparinized human whole blood exposed to ENCC The blood samples were diluted in DPBS to have 10±2 mg of hemoglobin per mL. ENCC was added to a microcentrifuge tube, followed by the addition of DPBS (800 μL) and the diluted blood (100 μL). After gently mixing the samples, they were incubated for 3 h±15 min at 37° C. and centrifuged for 15 min at 14000 rpm and ambient temperature. […] A microplate reader (540 nm, BioTek UV/vis Synnergy 2, USA) was then used to measure the relative absorbance of each well against the reagent blank to correct the background (blood-free samples) absorbance. The hemolysis percentage was measured based on the hemoglobin concentration in the samples divided by the total blood hemoglobin (˜10 mg mL−1). […]

[8] = DOX:COO− ~0.1, ENCC 100 μg mL−1

hydrodynamic size after ENCC addition [4, 8]: ~350 nm
ζ-potential after ENCC addition [4, 8]: ~−32 mV
hydrodynamic size of DOX aggregates ([4]; before ENCC addition): ~66 nm
ζ-potential of DOX aggregates ([4]; before ENCC addition): ~+24 mV
Compound: COc1cccc2c1C(=O)c1c(O)c3c(c(O)c1C2=O)C[C@@](O)(C(=O)CO)C[C@@H]3O[C@H]1C[C@H](N)[C@H](O)[C@H](C)O1 [DOX, Doxorubicin hydrochloride]
DOX concentration that induces fibroblast cellular toxicity [1]: above 5×10^−5 M
viability at 8 h, 400 μg mL−1 [2]: ~35%
decrease in metabolic activity (PrestoBlue) [3]: more than 2000%
viability at 8 h, 400 μg mL−1 [5]: < 10%
decrease in metabolic activity (PrestoBlue) [6]: more than 2000%

Compound: Triton X-100
hemolysis percentage (controls) ([7]; Triton X-100 1% v/v positive control, PEG 4.4% v/v negative control): > 95%

Compound: polyethylene glycol [PEG]
hemolysis percentage (controls) [7]: does not induce significant hemolysis
